Values of other authors in patent US4332794A, “6"-Deoxydibekacin, 4",6"-dideoxydibekacin and 1-N-aminoacyl derivatives thereof, and the production of these new compounds” (Zaidan Hojin Biseibutsu Kagaku Kenkyu Kai, priority 1979, dated 1982).

Assays:
[1] = test system: dibekacin-resistant bacteria; conditions: prior art; cited from earlier work
[2] = Japanese patent application No. 54733/79; cited from earlier work
bacteria = conditions: Japanese patent application No. 54733/79; cited from earlier work

Structure (SMILES)	antibacterial activity [1]	oto-toxicity [2]	antibacterial activity compared to amikacin (bacteria)
NCC[C@H](O)C(=O)N[C@@H]1C[C@H](N)[C@@H](O[C@H]2O[C@H](CN)CC[C@H]2N)[C@H](O)[C@H]1O[C@H]1O[C@H](CO)[C@@H](O)[C@H](N)[C@H]1O [1-N-(L-4-amino-2-hydroxybutyryl)-3',4'-dideoxykanamycin B]	effective against dibekacin-resistant bacteria	–	–
C[C@@H]1C[C@H](N)[C@@H](O)[C@@H](O[C@@H]2[C@@H](O)[C@H](O[C@H]3O[C@H](CN)[C@@H](O)[C@H](O)[C@H]3O)[C@@H](N)C[C@H]2NC(=O)[C@@H](O)CCN)O1 [4",6"-dideoxyamikacin, 1-N-(L-4-amino-2-hydroxybutyryl)-4",6"-dideoxykanamycin A]	–	low oto-toxicity	antibacterial activity as high as that of amikacin
C[C@H]1O[C@H](O[C@@H]2[C@@H](O)[C@H](O[C@H]3O[C@H](CN)[C@@H](O)[C@H](O)[C@H]3O)[C@@H](N)C[C@H]2NC(=O)[C@@H](O)CCN)[C@H](O)[C@@H](N)[C@@H]1O [6"-deoxyamikacin, 1-N-(L-4-amino-2-hydroxybutyryl)-6"-deoxykanamycin A]	–	low oto-toxicity	antibacterial activity as high as that of amikacin
